Among the data in patent US8633183B2 (priority 2010, dated 2014) are IC50 values, retold here.

Molecules are shown by their SMILES.

Usually IC50 stands for the concentration needed to halve the response being measured.

The experiment deals with PI3Kalpha (Homo sapiens (Human), UniProt P42336). The settings on record: read-out: IC50 PI3K.
Chain of PI3Kalpha (P42336 whole entry, looked up): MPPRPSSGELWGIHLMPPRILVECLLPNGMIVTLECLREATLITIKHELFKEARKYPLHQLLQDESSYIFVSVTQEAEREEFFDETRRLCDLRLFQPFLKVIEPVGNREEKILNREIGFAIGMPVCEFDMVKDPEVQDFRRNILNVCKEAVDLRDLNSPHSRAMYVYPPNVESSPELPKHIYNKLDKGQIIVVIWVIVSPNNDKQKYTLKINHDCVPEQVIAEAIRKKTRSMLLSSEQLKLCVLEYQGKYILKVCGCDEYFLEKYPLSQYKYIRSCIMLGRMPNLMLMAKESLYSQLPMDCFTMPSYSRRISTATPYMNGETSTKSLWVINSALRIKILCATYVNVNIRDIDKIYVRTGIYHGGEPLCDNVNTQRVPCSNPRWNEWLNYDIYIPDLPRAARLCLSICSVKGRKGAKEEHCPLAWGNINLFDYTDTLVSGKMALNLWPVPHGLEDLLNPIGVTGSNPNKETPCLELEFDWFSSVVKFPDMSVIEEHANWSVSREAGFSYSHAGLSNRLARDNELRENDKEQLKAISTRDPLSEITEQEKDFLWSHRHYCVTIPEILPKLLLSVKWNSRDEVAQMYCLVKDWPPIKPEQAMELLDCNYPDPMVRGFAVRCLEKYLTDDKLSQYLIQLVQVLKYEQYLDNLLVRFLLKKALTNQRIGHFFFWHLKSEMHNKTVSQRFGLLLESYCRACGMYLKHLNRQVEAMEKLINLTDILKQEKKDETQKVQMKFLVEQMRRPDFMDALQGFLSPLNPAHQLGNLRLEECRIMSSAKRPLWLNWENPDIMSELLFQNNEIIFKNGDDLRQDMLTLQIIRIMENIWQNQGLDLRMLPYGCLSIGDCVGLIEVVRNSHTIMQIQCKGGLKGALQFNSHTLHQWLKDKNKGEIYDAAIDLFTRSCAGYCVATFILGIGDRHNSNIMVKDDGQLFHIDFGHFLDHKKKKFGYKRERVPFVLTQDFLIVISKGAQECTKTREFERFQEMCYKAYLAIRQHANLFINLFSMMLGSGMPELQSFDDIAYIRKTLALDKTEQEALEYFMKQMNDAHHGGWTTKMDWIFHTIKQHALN
Consider `CCc1ncnc(-c2ccc(C(=O)N3CCC(N4CCOCC4)CC3)c(Cl)c2)c1C#Cc1ccc(NC)nc1` [Example E-185], for which the half-maximal inhibitory concentration (IC50) was 0.202 µM.
Regarding `CCc1ncnc(-c2ccc(C(=O)N3CCN(C4CCOCC4)CC3)c(Cl)c2)c1C#Cc1ccc(NC)nc1` [Example E-186], the IC50 is 0.325 µM.
Regarding `CCc1ncnc(-c2ccc(C(=O)N3CCN(CC(F)F)CC3)c(Cl)c2)c1C#Cc1ccc(NC)nc1` [Example E-187], the IC50 was 0.162 µM.
Consider `CCc1ncnc(-c2ccc(C(=O)N3CC[C@@H](N(C)C)C3)c(Cl)c2)c1C#Cc1ccc(NC)nc1` [Example E-188], for which the IC50 was found to be 0.356 µM.
Then `CCc1ncnc(-c2ccc(C(=O)N3CCN(CC)CC3)c(Cl)c2)c1C#Cc1ccc(NC)nc1` [Example E-189], with 0.186 µM.
In the case of `CCc1ncnc(-c2ccc(C(=O)N3CC[C@H](N(C)C)C3)c(Cl)c2)c1C#Cc1ccc(NC)nc1` [Example E-190] it was 0.175 µM; in that of `CCc1ncnc(-c2ccc(C(=O)N3CCN(C)CC3)c(Cl)c2)c1C#Cc1ccc(NC)nc1` [Example E-191], 0.142 µM.
Then `CCc1ncnc(-c2ccc(C(=O)N3CCC(N4CCN(C)CC4)CC3)c(Cl)c2)c1C#Cc1ccc(NC)nc1` [Example E-192], with 0.334 µM; and `CCc1ncnc(-c2cc(Cl)c(C(=O)N3CCN4CCC[C@H]4C3)c(Cl)c2)c1C#Cc1ccc(N)nc1` [Example E-194], with 0.129 µM; and `CCc1ncnc(-c2cc(Cl)c(C(=O)N3CCN(C)C(=O)C3)c(Cl)c2)c1C#Cc1ccc(N)nc1` [Example E-195], with 0.0203 µM.
Consider `CCc1ncnc(-c2cc(Cl)c(C(=O)N3CC[C@@H](N(C)C)C3)c(Cl)c2)c1C#Cc1ccc(N)nc1` [Example E-196], for which the concentration for half-maximal inhibition (IC50) stood at 0.235 µM.
On to `CCc1ncnc(-c2cc(Cl)c(C(=O)N3CCN(C)CC3)c(Cl)c2)c1C#Cc1ccc(N)nc1` [Example E-197], for which the half-inhibitory concentration (IC50) is 0.123 µM.
For the compound `CCc1ncnc(-c2cc(Cl)c(C(=O)N3CCN(CC)CC3)c(Cl)c2)c1C#Cc1ccc(N)nc1` [Example E-198], the concentration for half-maximal inhibition (IC50) came to 0.0909 µM.
In the case of `CCc1ncnc(-c2cc(Cl)c(C(=O)N3CCN(CC(C)(C)O)CC3)c(Cl)c2)c1C#Cc1ccc(N)nc1` [Example E-199] it was 0.0746 µM; in that of `CCc1ncnc(-c2cc(Cl)c(C(=O)N3CCC(C(C)O)CC3)c(Cl)c2)c1C#Cc1ccc(N)nc1` (stereo not shown) [Example E-200], 0.0588 µM; in that of `CCc1ncnc(-c2cc(Cl)c(C(=O)N3CCC(C(C)(C)O)CC3)c(Cl)c2)c1C#Cc1ccc(N)nc1` [Example E-201], 0.0981 µM.
As for `CCc1ncnc(-c2cc(Cl)c(C(=O)N3CCN(CC(F)F)CC3)c(Cl)c2)c1C#Cc1ccc(N)nc1` [Example E-202], the half-inhibitory concentration (IC50) is 0.0858 µM.
For `CCc1ncnc(-c2cc(Cl)c(C(=O)N3CCC(C)(O)CC3)c(Cl)c2)c1C#Cc1ccc(N)nc1` [Example E-203], the IC50 is 0.0952 µM.
Take `CCc1ncnc(-c2cc(Cl)c(C(=O)N3CCC(CO)CC3)c(Cl)c2)c1C#Cc1ccc(N)nc1` [Example E-205]: the IC50 is 0.0489 µM.
Take `CCc1ncnc(-c2cc(Cl)c(C(=O)N3CCN(CCC#N)CC3)c(Cl)c2)c1C#Cc1ccc(N)nc1` [Example E-206]: the concentration for half-maximal inhibition (IC50) was determined as 0.0718 µM.
`CCc1ncnc(-c2cc(F)c(C(=O)N3CCN4CCC[C@H]4C3)c(F)c2)c1C#Cc1ccc(NC)nc1` [Example E-207]: the 50% inhibitory concentration (IC50) stood at 0.581 µM.
In the case of `CCc1ncnc(-c2cc(F)c(C(=O)N3CCN(C)C(=O)C3)c(F)c2)c1C#Cc1ccc(NC)nc1` [Example E-208] it was 0.176 µM.
Turning to `CCc1ncnc(-c2cc(F)c(C(=O)N3CC[C@@H](N(C)C)C3)c(F)c2)c1C#Cc1ccc(NC)nc1` [Example E-209], the IC50 came out at 0.546 µM.
As for `CCc1ncnc(-c2cc(F)c(C(=O)N3CCN(C)CC3)c(F)c2)c1C#Cc1ccc(NC)nc1` [Example E-210], the IC50 came out at 0.388 µM.
Turning to `CCc1ncnc(-c2cc(F)c(C(=O)N3CCN(CC)CC3)c(F)c2)c1C#Cc1ccc(NC)nc1` [Example E-211], the IC50 was 0.472 µM.
In the case of `CCc1ncnc(-c2cc(F)c(C(=O)N3CCN(CC(C)(C)O)CC3)c(F)c2)c1C#Cc1ccc(NC)nc1` [Example E-212] it was 0.645 µM; in that of `CCc1ncnc(-c2cc(F)c(C(=O)N3CCC(C(C)O)CC3)c(F)c2)c1C#Cc1ccc(NC)nc1` (stereo not shown) [Example E-213], 0.465 µM; in that of `CCc1ncnc(-c2cc(F)c(C(=O)N3CCC(C(C)(C)O)CC3)c(F)c2)c1C#Cc1ccc(NC)nc1` [Example E-214], 0.6 µM.
For the compound `CCc1ncnc(-c2cc(F)c(C(=O)N3CCN(C4CCOCC4)CC3)c(F)c2)c1C#Cc1ccc(NC)nc1` [Example E-216], the 50% inhibitory concentration (IC50) is 0.466 µM.
Regarding `CCc1ncnc(-c2cc(F)c(C(=O)N3CCN(CC(F)F)CC3)c(F)c2)c1C#Cc1ccc(NC)nc1` [Example E-217], the half-inhibitory concentration (IC50) was found to be 0.327 µM.
With `CCc1ncnc(-c2cc(F)c(C(=O)N3CCC(C)(O)CC3)c(F)c2)c1C#Cc1ccc(NC)nc1` [Example E-218], the IC50 is 0.362 µM.
`CCc1ncnc(-c2cc(F)c(C(=O)N3CCN(C=O)CC3)c(F)c2)c1C#Cc1ccc(NC)nc1` [Example E-219]: the half-inhibitory concentration (IC50) turned out to be 0.163 µM.
Turning to `CCc1ncnc(-c2cc(F)c(C(=O)N3CCC(CO)CC3)c(F)c2)c1C#Cc1ccc(NC)nc1` [Example E-220], the half-inhibitory concentration (IC50) came to 0.293 µM.
Regarding `CCc1ncnc(-c2cc(F)c(C(=O)N3CCN(CCC#N)CC3)c(F)c2)c1C#Cc1ccc(NC)nc1` [Example E-221], the IC50 stood at 0.213 µM.
Regarding `CCc1ncnc(-c2ccc(C(=O)N3CCN(C(C)C)CC3)c(OC(F)(F)F)c2)c1C#Cc1ccc(N)nc1` [Example E-222], the IC50 came out at 0.53 µM.
On to `CCc1ncnc(-c2ccc(C(=O)N3CCN4CCC[C@H]4C3)c(OC(F)(F)F)c2)c1C#Cc1ccc(N)nc1` [Example E-223], for which the half-maximal inhibitory concentration (IC50) was found to be 0.157 µM.
In the case of `CCc1ncnc(-c2ccc(C(=O)N3CC[C@@H](N(C)C)C3)c(OC(F)(F)F)c2)c1C#Cc1ccc(N)nc1` [Example E-224] it was 0.402 µM; in that of `CCc1ncnc(-c2ccc(C(=O)N3CCN(C)CC3)c(OC(F)(F)F)c2)c1C#Cc1ccc(N)nc1` [Example E-225], 0.224 µM.
`CCc1ncnc(-c2ccc(C(=O)N3CCN(CC)CC3)c(OC(F)(F)F)c2)c1C#Cc1ccc(N)nc1` [Example E-226]: the IC50 worked out at 0.196 µM.
Then `CCc1ncnc(-c2ccc(C(=O)N3CCC(N4CCOCC4)CC3)c(OC(F)(F)F)c2)c1C#Cc1ccc(N)nc1` [Example E-228], with 0.356 µM; and `CCc1ncnc(-c2ccc(C(=O)N3CCN(C)CC3)c(C(F)(F)F)c2)c1C#Cc1ccc(N)nc1` [Example E-229], with 0.174 µM.
Regarding `CCc1ncnc(-c2ccc(C(=O)N3CCN(C(C)C)CC3)c(C(F)(F)F)c2)c1C#Cc1ccc(N)nc1` [Example E-230], the IC50 came to 0.279 µM.
In the case of `CCc1ncnc(-c2ccc(C(=O)N3CCN(CC)CC3)c(C(F)(F)F)c2)c1C#Cc1ccc(N)nc1` [Example E-231], the half-inhibitory concentration (IC50) came out at 0.185 µM.
In the case of `CCc1ncnc(-c2ccc(C(=O)N3CCC(C(C)(C)O)CC3)c(C(F)(F)F)c2)c1C#Cc1ccc(N)nc1` [Example E-232] it was 0.142 µM.
Then `CCc1ncnc(-c2cc(F)c(C(=O)N3CCN(C)CC3)c(Cl)c2)c1C#Cc1ccc(N)nc1` [Example E-233], with 0.0898 µM; and `CCc1ncnc(-c2cc(F)c(C(=O)N3CCN(C(C)C)CC3)c(Cl)c2)c1C#Cc1ccc(N)nc1` [Example E-234], with 0.263 µM.
With `CCc1ncnc(-c2cc(F)c(C(=O)N3CCN(CC)CC3)c(Cl)c2)c1C#Cc1ccc(N)nc1` [Example E-235], the IC50 amounted to 0.178 µM.
In the case of `CCc1ncnc(-c2cc(F)c(C(=O)N3CCC(N4CCOCC4)CC3)c(Cl)c2)c1C#Cc1ccc(N)nc1` [Example E-236] it was 0.141 µM; in that of `CCc1ncnc(-c2cc(F)c(C(=O)N3CCC(C(C)(C)O)CC3)c(Cl)c2)c1C#Cc1ccc(N)nc1` [Example E-237], 0.121 µM; in that of `CCc1ncnc(-c2cc(F)c(C(=O)N3CCN4CCC[C@H]4C3)c(Cl)c2)c1C#Cc1ccc(N)nc1` [Example E-238], 0.175 µM.
On to `CCc1ncnc(-c2cc(F)c(C(=O)N3CCN(C)C(=O)C3)c(Cl)c2)c1C#Cc1ccc(N)nc1` [Example E-239], for which the IC50 turned out to be 0.0462 µM.
As for `CCc1ncnc(-c2cc(F)c(C(=O)N3CCN(CC(C)(C)O)CC3)c(Cl)c2)c1C#Cc1ccc(N)nc1` [Example E-240], the concentration for half-maximal inhibition (IC50) was 0.115 µM.
Take `CCc1ncnc(-c2cc(F)c(C(=O)N3CCC(C(C)O)CC3)c(Cl)c2)c1C#Cc1ccc(N)nc1` (stereo not shown) [Example E-241]: the IC50 was determined as 0.0915 µM.
For the compound `CCc1ncnc(-c2cc(F)c(C(=O)N3CCC(CO)CC3)c(Cl)c2)c1C#Cc1ccc(N)nc1` [Example E-242], the IC50 was 0.12 µM.
As to `CCc1ncnc(-c2cc(F)c(C(=O)N3CCN(CCC#N)CC3)c(Cl)c2)c1C#Cc1ccc(N)nc1` [Example E-243], the IC50 came out at 0.11 µM.
In the case of `CCc1ncnc(-c2ccc(C(=O)N3CCN(CCNS(C)(=O)=O)CC3)c(F)c2)c1C#Cc1ccc(N)nc1` [Example E-246] it was 0.0813 µM; in that of `CCc1ncnc(-c2ccc(C(=O)N3CCn4c(C)cnc4C3)c(F)c2)c1C#Cc1ccc(N)nc1` [Example E-247], 0.0954 µM.
On to `CCc1ncnc(-c2ccc(C(=O)N3CCn4cnnc4C3)c(F)c2)c1C#Cc1ccc(N)nc1` [Example E-248], for which the IC50 was found to be 0.0508 µM.
In the case of `CCc1ncnc(-c2ccc(C(=O)N3CCn4ccnc4C3)c(F)c2)c1C#Cc1ccc(N)nc1` [Example E-249] it was 0.0605 µM.
In the case of `CCc1ncnc(-c2ccc(C(=O)N3CCN(CCCS(C)(=O)=O)CC3)c(F)c2)c1C#Cc1ccc(N)nc1` [Example E-250] it was 0.0922 µM.
Regarding `CCc1ncnc(-c2ccc(C(=O)N3CCC4(CC3)CNC4)c(Cl)c2)c1C#Cc1ccc(N)nc1` [Example E-251], the IC50 amounted to 0.0907 µM.
For `CCc1ncnc(-c2ccc(C(=O)N3CCN(C4CCC4)CC3)c(Cl)c2)c1C#Cc1ccc(N)nc1` [Example E-252], the half-inhibitory concentration (IC50) was determined as 0.0482 µM.
Turning to `CCc1ncnc(-c2ccc(C(=O)N3CCN(CCNS(C)(=O)=O)CC3)c(Cl)c2)c1C#Cc1ccc(N)nc1` [Example E-253], the IC50 is 0.0306 µM.
With `CCc1ncnc(-c2ccc(C(=O)N3CCn4c(C)cnc4C3)c(Cl)c2)c1C#Cc1ccc(N)nc1` [Example E-254], the IC50 came out at 0.0316 µM.
